One assay deals with C. albicans R303. Briefly: mouse candidiasis infection model, IP administration, kidney fungal burden. In kind it is in vivo. The following applies: for overall performance in reducing C. albicans CFUs in the kidneys of the mice: conclusion over all runs. In outline:
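Female CD-1 mice rendered neutropenic with IP cyclophosphamide 150 mg/kg at days −4 and −1. Mice infected IV via tail vein with C. albicans R303, then given test compounds IP 2 h post-infection. Kidney fungal burden determined as CFU by plate counts; values are means of four mice.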

For another assay, the system named is Candida spp. The experiment in a line: MIC values versus Candida spp. at 24 and 48 hours. Format: cell-based. The note with it: presence and absence of 50% human serum. The protocol:
MIC values (μg/mL) of anidulafungin, caspofungin, amphotericin B, compound 1, and compound 16 against various Candida species in the presence and absence of 50% human serum were obtained as follows.
Test organisms were obtained from the American Type Culture Collection (Manassas, Va.). The isolates were maintained at −80° C., then thawed and sub-cultured prior to testing.
The MIC assay method followed the procedure described by the Clinical and Laboratory Standards Institute and employed automated liquid handlers to conduct serial dilutions and liquid transfers. The wells in columns 1-12 in standard 96-well microdilution plates were filled with 150 μL of DMSO. These would become the ‘mother plates’ from which ‘daughter’ or test plates would be prepared. The drugs (150 μL at 80× the desired top concentration in the test plates) were dispensed into the appropriate well in column 1 of the mother plates and mixed. Serial 1:1 dilutions were made through Column 11 in the “mother plate”. The wells of column 12 contained no drug and were the organism growth control wells. […]
Plates were covered with a lid, placed in plastic bags, and incubated at 35° C. The Candida isolates were read after 24 h incubation and again at 48 h. […]
For Candida species, the Minimal Inhibitory Concentration (MIC) was read per CLSI guidelines.

Where [1] appears, read: Candida albicans, R303, ip, 24 h, Fifth run, IP 0.5 mg/kg, read-out: Difference from 24-h control.
Where [2] appears, read: Candida albicans, R303, ip, 24 h, Fifth run, IP 1.5 mg/kg, read-out: Difference from 24-h control.
Where [3] appears, read: Candida albicans, R303, ip, 24 h, Fifth run, IP 4.5 mg/kg, read-out: Difference from 24-h control.
The mark [4] stands for this setting: Fifth run, IP 0.5 mg/kg, kidneys 24 h after infection.
[5] abbreviates: Fifth run, IP 1.5 mg/kg, kidneys 24 h after infection.
Where [6] appears, read: Fifth run, IP 4.5 mg/kg, kidneys 24 h after infection.

Like-named read-outs stand apart in the source and are kept apart here.

Here are results for two molecules from patent publication US9217014B2, “Antifungal agents and uses thereof” (Cidara Therapeutics, Inc., priority 2011, dated 2015).

On to `CCCCCOc1ccc(-c2ccc(-c3ccc(C(=O)N[C@H]4C[C@@H](O)C(OCC[N+](C)(C)C)NC(=O)C5[C@@H](O)[C@@H](C)CN5C(=O)C([C@@H](C)O)NC(=O)C([C@H](O)[C@@H](O)c5ccc(O)cc5)NC(=O)C5C[C@@H](O)CN5C(=O)C([C@@H](C)O)NC4=O)cc3)cc2)cc1` (stereo partly drawn) [compound 1], for which the log reduction at 0.5 mg/kg in the assay on C. albicans R303 (setting [1]) was 1.47; in the assay with C. albicans R303 (Candida albicans, R303, ip, 24 h, Second run, IP 0.5 mg/kg, read-out: Difference from 24-h control), 2.08. Besides, the log reduction at 1.5 mg/kg in the assay with C. albicans R303 (setting [2]) was found to be 3.58; in the assay on C. albicans R303 (Candida albicans, R303, ip, 24 h, Second run, IP 1.5 mg/kg, read-out: Difference from 24-h control), 3.05. Moreover, the log reduction at 4.5 mg/kg in the assay with C. albicans R303 (setting [3]) was found to be 4.81; with C. albicans R303 (Candida albicans, R303, ip, 24 h, Second run, IP 4.5 mg/kg, read-out: Difference from 24-h control) it was 3.9. Also, in the assay with C. albicans R303 (Candida albicans, R303, ip, 24 h, First run, IP 5 mg/kg, read-out: Difference from 24-h control), the log reduction at 5 mg/kg amounted to 4.8. For the same molecule, the “Mean log10 CFU/kidneys (±SEM)” value is listed as 3.67 ± 0.07 log10 CFU/kidneys in the assay on C. albicans R303 (setting [4]); 1.56 ± 0.15 log10 CFU/kidneys with C. albicans R303 (setting [5]); 0.33 ± 0.33 log10 CFU/kidneys with C. albicans R303 (setting [6]); 2.80 ± 0.11 log10 CFU/kidneys with C. albicans R303 (Second run, IP 0.5 mg/kg, kidneys 24 h after infection); 1.83 ± 0.14 log10 CFU/kidneys in the assay with C. albicans R303 (Second run, IP 1.5 mg/kg, kidneys 24 h after infection); 0.98 ± 0.33 log10 CFU/kidneys in the assay with C. albicans R303 (Second run, IP 4.5 mg/kg, kidneys 24 h after infection). The “Mean log10 CFU/kidneys (±SD)” value with C. albicans R303 (First run, IP 5 mg/kg, neutropenic mice, kidneys 24 h after infection) is recorded as 0.40 ± 0.80 log10 CFU/kidneys. Besides, the “overall performance in reducing C. albicans CFUs in the kidneys of the mice” value in the assay with C. albicans R303 was “performed strongly”. Besides, the “activity against Candida strains relative to anidulafungin (MIC)” value with Candida spp. is on record as “retain their activity”.
For `CCCCCOc1ccc(-c2ccc(-c3ccc(C(=O)N[C@H]4C[C@@H](O)C(NCC[N+](C)(C)C)NC(=O)C5[C@@H](O)[C@@H](C)CN5C(=O)C([C@@H](C)O)NC(=O)C([C@H](O)[C@@H](O)c5ccc(O)cc5)NC(=O)C5C[C@@H](O)CC5C(=O)C([C@@H](C)O)NC4=O)cc3)cc2)cc1` (stereo partly drawn) [compound 16], the log reduction at 0.5 mg/kg with C. albicans R303 (setting [1]) was 3.22. Further, the log reduction at 1.5 mg/kg in the assay on C. albicans R303 (setting [2]) came out at 3.74. Moreover, the log reduction at 4.5 mg/kg with C. albicans R303 (setting [3]) was determined as 4.08. Besides, the figures for the “Mean log10 CFU/kidneys (±SEM)” value in the assay with C. albicans R303 (setting [4]), in the assay on C. albicans R303 (setting [5]) and in the assay on C. albicans R303 (setting [6]) were 1.91 ± 0.34 log10 CFU/kidneys, 1.39 ± 0.16 log10 CFU/kidneys and 1.05 ± 0.36 log10 CFU/kidneys, respectively. In addition, the “overall performance in reducing C. albicans CFUs in the kidneys of the mice” value with C. albicans R303 is reported as “performed strongly”. The “activity against Candida strains relative to anidulafungin (MIC)” value in the assay on Candida spp. is on record as “retain their activity”.
